Read-outs that look alike come from different tables or passages of the source.

This series relates to lymphocytic leukemia P-388. Put plainly: P-388 lymphocytic leukemia test in mice (NCI Protocol 1.200). Format: in vivo, CDF1 female mice. To be noted: for Tox.Day Surv. (survivors/animals tested): day 5; for response vs control in vivo at 12.5 mg/kg / response vs control in vivo at 25 mg/kg / response vs control in vivo at 50 mg/kg / response vs control in vivo at 100 mg/kg / response vs control in vivo at 200 mg/kg / response vs control in vivo at 400 mg/kg: Mus musculus, P388, 120 h, read-out: % T/C (mean survival time). Here is the method:
Various bis(acyloxymethyl)imidazole derivatives prepared in accord with Examples I-XVIII and designated Samples A-J, were tested for anti-tumor activity in vivo using the lymphocytic leukemia P-388 test procedure in mice with Samples A and B representing controls. The test system was that employed by the National Cancer Institute (NCI) for the preliminary screening of anti-tumor agents, according to Protocol 1.200 (Cancer Chemo. Reports Part 3, Vol. 3, No. 2, page 9; 1972). In the study ascitic fluid containing 6×10^6 cells was implanted in the peritoneal cavity of CDF1 female mice. Each imidazole was given in a single injection, at four to six different dose levels (5-6 mice/dose level) daily for five (5) days beginning 24 hours after tumor innoculation. The control animals received saline. Test criteria was in accord with NCI protocol as follows: toxicity day evaluations were carried out on day 5 (number of survivors/number of animals tested); % T/C data was calculated through mean survival time [% T/C=(MST treated/MST control)x100, where MST=mean survival time]; BWD refers to the body weight difference (grams) of test animals compared to control animals; KE refers to the log of the tumor cell population at the end of treatment relative to tumor cell population before treatment.
Table I sets out the identification of the compounds corresponding to the samples used in this and further Examples. Table II sets out the results of the P-388 tests.

The mark [1] stands for this setting: 12.5 mg/kg/inj, daily for 5 days.
Where [2] appears, read: 100 mg/kg/inj, daily for 5 days.
The mark [3] stands for this setting: 200 mg/kg/inj, daily for 5 days.
Setting [4] is: 400 mg/kg/inj, daily for 5 days.

For the molecule `CNC(=O)OCc1ncn(-c2ccccc2)c1COC(=O)NC` [A, 1-phenyl-4,5-bis(N-methylcarbonyloxymethyl)imidazole, reference compound], the response vs control in vivo at 12.5 mg/kg amounted to 99%, the response vs control in vivo at 25 mg/kg was 95%, the response vs control in vivo at 50 mg/kg is 101% and the response vs control in vivo at 100 mg/kg is 101%. Also, the response vs control in vivo at 200 mg/kg was 99%. Under setting [1], the “BWD (body weight difference vs control)” value is on record as -0.4 g, the “KE (log tumor cell population end vs before treatment)” value was -1.55 and the “Tox.Day Surv. (survivors/animals tested)” value was 5/5. Further, where the note is “25 mg/kg/inj, daily for 5 days”, the “BWD (body weight difference vs control)” value was 0.2 g, the “KE (log tumor cell population end vs before treatment)” value was -1.61 and the “Tox.Day Surv. (survivors/animals tested)” value was 5/5. Moreover, for the setting “50 mg/kg/inj, daily for 5 days”, the “BWD (body weight difference vs control)” value was -0.8 g, the “KE (log tumor cell population end vs before treatment)” value is reported as -1.52 and the “Tox.Day Surv. (survivors/animals tested)” value was 5/5. Moreover, under setting [2], the “BWD (body weight difference vs control)” value is -0.4 g, the “KE (log tumor cell population end vs before treatment)” value is -1.52 and the “Tox.Day Surv. (survivors/animals tested)” value is recorded as 5/5. Under setting [3], the “BWD (body weight difference vs control)” value was -1.2 g, the “KE (log tumor cell population end vs before treatment)” value is listed as -1.55 and the “Tox.Day Surv. (survivors/animals tested)” value is listed as 5/5.

For `CC(C)NC(=O)OCc1ncn(-c2ccccc2)c1COC(=O)NC(C)C` [B, 1-phenyl-4,5-bis[N-(2-propyl)carbonyloxymethyl]-imidazole, reference compound], under setting [1], the “BWD (body weight difference vs control)” value was -0.4 g, the “KE (log tumor cell population end vs before treatment)” value is on record as -1.53 and the response vs control in vivo at 12.5 mg/kg was determined as 103%. Besides, where the note is “25 mg/kg/inj, daily for 5 days”, the “BWD (body weight difference vs control)” value was -0.1 g, the “KE (log tumor cell population end vs before treatment)” value is recorded as -1.53 and the response vs control in vivo at 25 mg/kg is 103%. Moreover, under “50 mg/kg/inj, daily for 5 days”, the “BWD (body weight difference vs control)” value was found to be 0.8 g, the “KE (log tumor cell population end vs before treatment)” value is reported as -1.62 and the response vs control in vivo at 50 mg/kg amounted to 97%. Under setting [2], the “BWD (body weight difference vs control)” value is listed as 0.6 g, the “KE (log tumor cell population end vs before treatment)” value is reported as -1.69 and the response vs control in vivo at 100 mg/kg stood at 91%. Moreover, under setting [3], the “BWD (body weight difference vs control)” value is given as 0.2 g, the “KE (log tumor cell population end vs before treatment)” value is given as “toxic” and the response vs control in vivo at 200 mg/kg is 90%. Besides, under setting [4], the “BWD (body weight difference vs control)” value was -2.3 g, the “KE (log tumor cell population end vs before treatment)” value is “toxic” and the response vs control in vivo at 400 mg/kg was 90%.

As for `CNC(=O)OCc1nc(SC)n(-c2ccccc2)c1COC(=O)NC` [C, 1-phenyl-2-methylthio-4,5-bis-(N-methylcarbonyloxymethyl)imidazole], the response vs control in vivo at 50 mg/kg worked out at 141%, the response vs control in vivo at 100 mg/kg was determined as 133% and the response vs control in vivo at 200 mg/kg worked out at 156%. Moreover, under “50 mg/kg/inj, daily for 5 days”, the “BWD (body weight difference vs control)” value is -1.4 g, the “KE (log tumor cell population end vs before treatment)” value is reported as 0.60 and the “Tox.Day Surv. (survivors/animals tested)” value is 5/5. Also, under setting [2], the “BWD (body weight difference vs control)” value is recorded as -1.6 g, the “KE (log tumor cell population end vs before treatment)” value is given as 0.17 and the “Tox.Day Surv. (survivors/animals tested)” value is on record as 5/5. Under setting [3], the “BWD (body weight difference vs control)” value is -3.0 g, the “KE (log tumor cell population end vs before treatment)” value worked out at 1.46 and the “Tox.Day Surv. (survivors/animals tested)” value is 5/5. Further, under setting [4], the “BWD (body weight difference vs control)” value was -5.2 g, the “KE (log tumor cell population end vs before treatment)” value is “toxic” and the “Tox.Day Surv. (survivors/animals tested)” value was 4/5.

Turning to `CSc1nc(COC(=O)NC(C)C)c(COC(=O)NC(C)C)n1-c1ccccc1` [D, 1-phenyl-2-methylthio-4,5-bis-[N-(2-propyl)carbonyloxymethyl]imidazole], under setting [1], the “BWD (body weight difference vs control)” value was -0.2 g, the “KE (log tumor cell population end vs before treatment)” value is reported as -1.42 and the response vs control in vivo at 12.5 mg/kg turned out to be 111%. Besides, under “25 mg/kg/inj, daily for 5 days”, the “BWD (body weight difference vs control)” value was found to be 0.6 g and the response vs control in vivo at 25 mg/kg worked out at 101%. For the setting “50 mg/kg/inj, daily for 5 days”, the “BWD (body weight difference vs control)” value worked out at 0.3 g, the “KE (log tumor cell population end vs before treatment)” value is given as -1.64 and the response vs control in vivo at 50 mg/kg came to 95%. In addition, under setting [2], the “BWD (body weight difference vs control)” value is given as -2.0 g, the “KE (log tumor cell population end vs before treatment)” value is reported as -1.62 and the response vs control in vivo at 100 mg/kg was 97%. Moreover, under setting [3], the “BWD (body weight difference vs control)” value is -2.8 g, the “KE (log tumor cell population end vs before treatment)” value is reported as -1.64 and the response vs control in vivo at 200 mg/kg was determined as 90%. Also, under setting [4], the “BWD (body weight difference vs control)” value is reported as -4.8 g, the “KE (log tumor cell population end vs before treatment)” value is -1.52 and the response vs control in vivo at 400 mg/kg came to 100%.

As for `CNC(=O)OCc1nc(SC)n(Cc2ccccc2)c1COC(=O)NC` [E, 1-benzyl-2-methylthio-4,5-bis-(N-methylcarbonyloxymethyl)imidazole], the response vs control in vivo at 50 mg/kg was determined as 116%, the response vs control in vivo at 100 mg/kg amounted to 116%, the response vs control in vivo at 200 mg/kg was 129% and the response vs control in vivo at 400 mg/kg is 127%. Besides, for the setting “50 mg/kg/inj, daily for 5 days”, the “BWD (body weight difference vs control)” value is recorded as 0.9 g, the “KE (log tumor cell population end vs before treatment)” value was -1.19 and the “Tox.Day Surv. (survivors/animals tested)” value is listed as 6/6. Under setting [2], the “BWD (body weight difference vs control)” value is 0.4 g, the “KE (log tumor cell population end vs before treatment)” value is reported as -1.19 and the “Tox.Day Surv. (survivors/animals tested)” value was 6/6. Under setting [3], the “BWD (body weight difference vs control)” value is listed as -0.4 g, the “KE (log tumor cell population end vs before treatment)” value is reported as -0.44 and the “Tox.Day Surv. (survivors/animals tested)” value is listed as 6/6. Also, under setting [4], the “BWD (body weight difference vs control)” value is -1.2 g, the “KE (log tumor cell population end vs before treatment)” value is listed as -0.71 and the “Tox.Day Surv. (survivors/animals tested)” value was 6/6.

Turning to `CSc1nc(COC(=O)NC(C)C)c(COC(=O)NC(C)C)n1Cc1ccccc1` [F, 1-benzyl-2-methylthio-4,5-bis-[N-(2-propyl)carbonyloxymethyl)imidazole], under setting [1], the “BWD (body weight difference vs control)” value is -0.2 g, the “KE (log tumor cell population end vs before treatment)” value is reported as -1.64 and the response vs control in vivo at 12.5 mg/kg was found to be 98%. For the setting “25 mg/kg/inj, daily for 5 days”, the “BWD (body weight difference vs control)” value is listed as -1.5 g, the “KE (log tumor cell population end vs before treatment)” value was -1.59 and the response vs control in vivo at 25 mg/kg stood at 101%. Under “50 mg/kg/inj, daily for 5 days”, the “BWD (body weight difference vs control)” value was -0.5 g, the “KE (log tumor cell population end vs before treatment)” value was -0.42 and the response vs control in vivo at 50 mg/kg is 110%. In addition, under setting [2], the “BWD (body weight difference vs control)” value was -0.3 g, the “KE (log tumor cell population end vs before treatment)” value was -0.39 and the response vs control in vivo at 100 mg/kg turned out to be 111%. Under setting [3], the “BWD (body weight difference vs control)” value was -2.2 g, the “KE (log tumor cell population end vs before treatment)” value is -0.32 and the response vs control in vivo at 200 mg/kg worked out at 116%. Under setting [4], the “BWD (body weight difference vs control)” value is given as -3.2 g and the “KE (log tumor cell population end vs before treatment)” value is listed as “toxic”.

Take `CNC(=O)OCc1nc(-c2ccccc2)n(C)c1COC(=O)NC` [G, 1-methyl-2-phenyl-4,5-bis-(N-methylcarbonyloxymethyl)imidazole]: the response vs control in vivo at 12.5 mg/kg is 98%, the response vs control in vivo at 25 mg/kg stood at 107%, the response vs control in vivo at 50 mg/kg came out at 112% and the response vs control in vivo at 100 mg/kg amounted to 116%. The response vs control in vivo at 200 mg/kg came to 119%. Under setting [1], the “BWD (body weight difference vs control)” value is listed as -0.2 g, the “KE (log tumor cell population end vs before treatment)” value is reported as -1.56 and the “Tox.Day Surv. (survivors/animals tested)” value was 5/5. Moreover, for the setting “25 mg/kg/inj, daily for 5 days”, the “BWD (body weight difference vs control)” value is on record as 0.0 g, the “KE (log tumor cell population end vs before treatment)” value is given as -1.44 and the “Tox.Day Surv. (survivors/animals tested)” value is recorded as 5/5. Further, where the note is “50 mg/kg/inj, daily for 5 days”, the “BWD (body weight difference vs control)” value is recorded as -0.8 g, the “KE (log tumor cell population end vs before treatment)” value was -1.38 and the “Tox.Day Surv. (survivors/animals tested)” value is 5/5. Under setting [2], the “BWD (body weight difference vs control)” value is listed as -1.0 g, the “KE (log tumor cell population end vs before treatment)” value is recorded as -1.31 and the “Tox.Day Surv. (survivors/animals tested)” value was 5/5. Under setting [3], the “BWD (body weight difference vs control)” value is listed as -2.2 g, the “KE (log tumor cell population end vs before treatment)” value was -1.28 and the “Tox.Day Surv. (survivors/animals tested)” value was 5/5.

These data come from patent US5329012A, “Bis(acyloxmethyl)imidazole compounds” (The Research Foundation of State University of New York, priority 1987, dated 1994).
